53 compounds from patent publication US20190185479A1, “BICYCLIC NITROGENATED HETEROCYCLIC COMPOUND” (MITSUBISHI TANABE PHARMA CORPORATION, priority 2016, published 2019) can be followed below.

For orientation: IC50 means the concentration at which inhibition is half-maximal. A word on the inhibition: it is how much of the control response was suppressed. Higher therefore signals a strong effect.

T1 sequence (Q9NP56 whole entry): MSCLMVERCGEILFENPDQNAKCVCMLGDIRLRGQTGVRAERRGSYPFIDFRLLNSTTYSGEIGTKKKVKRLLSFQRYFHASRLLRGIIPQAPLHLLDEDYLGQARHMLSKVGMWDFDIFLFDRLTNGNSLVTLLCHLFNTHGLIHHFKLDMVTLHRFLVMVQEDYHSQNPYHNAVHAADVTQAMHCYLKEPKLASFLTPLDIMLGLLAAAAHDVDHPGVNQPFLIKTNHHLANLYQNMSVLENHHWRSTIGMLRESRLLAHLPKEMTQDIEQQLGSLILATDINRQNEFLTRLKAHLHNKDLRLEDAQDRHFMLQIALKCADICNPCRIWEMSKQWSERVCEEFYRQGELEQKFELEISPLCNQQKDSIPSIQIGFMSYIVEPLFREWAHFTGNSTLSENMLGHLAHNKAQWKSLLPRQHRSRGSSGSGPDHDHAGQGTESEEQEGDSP

One test has as its target T1, Human PDE7B (hPDE7B) (Homo sapiens, UniProt Q9NP56).
T1 construct: made in house; host or cells: COS-7 cells
Briefly: Measurement of PDE7 inhibitory activity (Experimental Example 1; residual cAMP, LANCE Ultra cAMP TR-FRET). The class given is biochemical. The settings on record: cAMP 3 nmol/L, room temperature 60 minutes. As for the experimental part:
Human PDE7B (hPDE7B) was isolated from COS-7 cells transfected with plasmids encoding hPDE7B according to the method described in a reference, Biochemical and Biophysical Research Communication, 271, p. 575-583 (2000). The resulting enzyme solution was used in the PDE assay.
PDE7 inhibitory assay was carried out by reacting the mixture of a compound, hPDE7B, and cAMP, and measuring the residual cAMP by a detection method using LANCE (registered trademark) Ultra cAMP Detection Kit (ParkinElmer). The compound was dissolved in DMSO, and diluted so that the concentration would become 50 times of the final concentration. The hPDE7B and cAMP were diluted with an assay buffer (50 mmol/L Tris-HCl, 1 mmol/L MgCl2, 0.1% BSA, 0.5 mmol/L DTT, pH7.5) so that the hPDE7B would have an appropriate enzyme activity and the concentration of cAMP would become 6 nmol/L. To a 96 well plate were added the compound (2 μL) (DMSO final concentration: 2%), hPDE7B (48 μL), and cAMP (50 μL) (concentration at the reaction: 3 nmol/L), and the resulting mixture was reacted at room temperature for 60 minutes. The reaction solution (20 μL) was subjected to a TR-FRET method according to the protocol specified by the kit to measure the concentration of the residual cAMP. In the assay, to a tracer solution specified by the kit was added 0.5 mmol/L of 3-isobutyl-1-methylxanthine (IBMX, nonselective PDE inhibitor) in order to stop the PDE enzyme reaction after the completion of reaction until the measurement.
The reaction without a compound was defined as “0% inhibition”, the reaction without hPDE7B was defined as “100% inhibition”, and the inhibition rate of the compound was calculated by the following equation.
Inhibition rate of compound (%)={(Residual cAMP concentration at the addition of compound−Residual cAMP concentration in 0% inhibition)/(Residual cAMP concentration in 100% inhibition−Residual cAMP concentration in 0% inhibition)}×100
On the technique in general: In TR-FRET formats the signal depends on donor and acceptor labels being close together.
`CC1CCC(F)(F)CC1c1nnc2c(N)ncnn12` (racemic) [Example 76, 3-(cis-5,5-difluoro-2-methylcyclohexyl) [1,2,4]triazolo[3,4-f][1,2,4]triazin-8-amine]: the IC50 was under 10 nM.

Turning to `C[C@@H]1CCC[C@@H](C)N1c1nnc2c(N)nccn12` [Example 63], the IC50 is 304 nM.

For the compound `Nc1nccn2c(N3CCCC(c4ccccc4)C3)nnc12` (stereo not drawn) [Example 49], the IC50 turned out to be 260 nM.

In turn, `Nc1nc(C(F)(F)F)nc2c1nnn2C1CCCCC1` [Example 6] yielded an IC50 of 340 nM.

Turning to `Nc1nccn2c(C3CCC3)nnc12` [Example 18], half-maximal inhibition (IC50) required 460 nM.

`CCC1CCCC(n2nnc3c(N)ncnc32)C1` (stereo not drawn) [Example 117]: half-maximal inhibition (IC50) was put at 80 nM.

For the compound `CC(c1ccccc1)n1nnc2c(N)ncnc21` (stereo not drawn) [Example 15], inhibition was half-maximal at 570 nM (IC50).

On to `CC1CCCCC1n1nnc2c(N)ncnc21` (single isomer, unassigned) [Example 193, 3-(trans-2-methylcyclohexyl)-3H-[1,2,3]triazolo[4,5-d]pyrimidin-7-amine], for which it took 430 nM to reach half-maximal inhibition (IC50).

On to `CC1CCN(c2nnc3c(N)nccn23)CC1C` (mixture of isomers) [Example 55, 3-(3,4-dimethylpiperidin-1-yl) [1,2,4]triazolo[4,3-a]pyrazin-8-amine], for which the IC50 worked out at 30 nM.

`Nc1ncnc2c1nnn2C1CCc2ccccc2C1` (stereo not drawn) [Example 34] yielded an IC50 of 460 nM. This IC50 is about 15-fold higher than that of the compound before.

For `Nc1nccn2c(C3CCCC4(CC4)C3)nnc12` (single isomer, unassigned) [Example 209, 3-(spiro[2,5]oct-5-yl) [1,2,4]triazolo[4,3-a]pyrazin-8-amine], 130 nM corresponded to half-maximal inhibition (IC50). Compared with the last compound, the IC50 is about 3.5-fold lower.

Compound `CC1(C)CCCCN1c1nnc2c(N)nccn12` [Example 36, 3-(2,2-dimethylpiperidin-1-yl)-[1,2,4]triazolo[4,3-a]pyrazin-8-amine] yielded an IC50 of 380 nM.

As to `CCC1CCN(c2nnc3c(N)nccn23)CC1` [Example 50], the midpoint of inhibition, the IC50, lay at 520 nM.

`CC(C)(C)OC(=O)N1CCC[C@@H](n2nnc3c(N)ncnc32)C1` [Example 12, tert-butyl (3R)-3-(7-amino-3H-[1,2,3]triazolo[4,5-d]pyrimidin-3-yl)piperidine-1-carboxylate] showed an IC50 of 620 nM.

`Nc1ncnc2c1nnn2C12CC3CC(CC(C3)C1)C2` [Example 10] showed an IC50 of 100 nM.

In turn, `COC1CCCC(n2nnc3c(N)ncnc32)C1` (stereo not drawn) [Example 121] came in with a half-maximal inhibitory concentration (IC50) of 870 nM.

Take `CC1CCCC(n2nnc3c(N)ncnc32)C1` (racemic) [Example 98, 3-(cis-3-methylcyclohexyl)-3H-[1,2,3]triazolo[4,5-d]pyrimidin-7-amine]: 80 nM corresponded to half-maximal inhibition (IC50).

`CC1CC(c2nnc3c(N)nccn23)CC(F)(F)C1` (stereo not drawn) [Example 154] had an IC50 of 110 nM.

As for `C[C@@H]1C[C@H](C)C[C@@H](n2nnc3c(N)ncnc32)C1` [Example 105], the 50% inhibitory concentration (IC50) is 310 nM.

Compound `CC1CCC(F)(F)CC1c1nnc2c(N)nccn12` (racemic) [Example 152, 3-(cis-5,5-difluoro-2-methylcyclohexyl) [1,2,4]triazolo[4,3-a]pyrazin-8-amine] registered an IC50 of under 10 nM.

With `CC1CCC(C(F)(F)F)CC1c1nnc2c(N)nccn12` (racemic) [Example 151, 3-[2-methyl-5-(trifluoromethyl)cyclohexyl][1,2,4]triazolo[4,3-a]pyrazin-8-amine], the IC50 was 10 nM. This counts as double-digit nanomolar.

`CC1CC(c2nnc3c(N)nccn23)CC(F)(F)C1` (single isomer, unassigned) [Example 215] gave an IC50 of 530 nM.

Take `Nc1ncnc2c1nnn2[C@H]1CCCN(Cc2ccccc2)C1` [Example 138, 3-[(3S)-1-benzylpiperidin-3-yl]-3H-[1,2,3]triazolo[4,5-d]pyrimidin-7-amine]: 340 nM corresponded to half-maximal inhibition (IC50).

Consider `CC1(C)CC(c2nnc3c(N)nccn23)CC(F)(F)C1` (racemic) [Example 156, 3-(3,3-difluoro-5,5-dimethylcyclohexyl) [1,2,4]triazolo[4,3-a]pyrazin-8-amine], for which the IC50 was determined as 30 nM.

As to `CC(C)[C@@H]1CC[C@@H](C)[C@@H](n2nnc3c(N)ncnc32)C1` [Example 132, 3-[(1S,2R,5R)-2-methyl-5-(propan-2-yl)cyclohexyl]-3H-[1,2,3]triazolo[4,5-d]pyrimidin-7-amine], the IC50 turned out to be 670 nM.

In turn, `CCOc1nc(N)c2nnn(C3CCCCC3)c2n1` [Example 93, 3-cyclohexyl-5-ethoxy-3H-[1,2,3]triazolo[4,5-d]pyrimidin-7-amine] gave an IC50 of 20 nM.

`Nc1ncnn2c(C3CCCC(C(F)(F)F)C3)nnc12` (single isomer, unassigned) [Example 245, 3-[cis-3-(trifluoromethyl)cyclohexyl][1,2,4]triazolo[3,4-f][1,2,4]triazin-8-amine] showed an IC50 of 850 nM.

With `Nc1ncnc2c1nnn2C1CCCC(C(F)F)C1` (single isomer, unassigned) [Example 201], the IC50 was over 1000 nM.

`Nc1nccn2c(C3CC(C(F)(F)F)CC(F)(F)C3)nnc12` (stereo not drawn) [Example 157] showed an IC50 of 920 nM.

For `Nc1nccn2c(N3CCCCCCC3)nnc12` [Example 30], the midpoint of inhibition, the IC50, lay at 390 nM. Against the preceding compound, the IC50 is about 2.4-fold lower.

Consider `Nc1ncnc2c1nnn2C1CCCC(CC(F)(F)F)C1` (stereo not drawn) [Example 120], for which the IC50 was 380 nM.

Take `Nc1nccn2c(C3CCCc4ccccc43)nnc12` (racemic) [Example 17, 3-(1,2,3,4-tetrahydronaphthalen-1-yl)-[1,2,4]triazolo[4,3-a]pyrazin-8-amine]: half-maximal inhibition (IC50) required 320 nM.

In turn, `CCC1CCCN(c2nnc3c(N)nccn23)C1` (stereo not drawn) [Example 25] showed an IC50 of 190 nM.

In the case of `CC1(C)CCN(c2nnc3c(N)nccn23)CC1` [Example 51], inhibition was half-maximal at 110 nM (IC50).

In turn, `Nc1nccn2c(C3CCCC(C(F)(F)F)C3)nnc12` (racemic) [Example 146, 3-[cis-3-(trifluoromethyl)cyclohexyl][1,2,4]triazolo[4,3-a]pyrazin-8-amine] displayed an IC50 of 40 nM. This IC50 lies about 2.8-fold lower than the previous one.

With `Nc1nccn2c(N3CCCCC3C(F)(F)F)nnc12` (stereo not drawn) [Example 39], the IC50 came to 220 nM.

Turning to `Nc1nccn2c(C3CCCCO3)nnc12` (stereo not drawn) [Example 168], the IC50 was found to be 440 nM.

In the case of `Nc1nccn2c(N3CCCC(C(F)(F)F)C3)nnc12` (single isomer, unassigned) [Example 225], the IC50 was found to be 540 nM.

`C[C@]1(O)CC[C@@H](n2nnc3c(N)ncnc32)CC1` [Example 9] came in with an IC50 of 890 nM.

`CC1CCCCC1n1nnc2c(N)ncnc21` (single isomer, unassigned) [Example 190, 3-(cis-2-methylcyclohexyl)-3H-[1,2,3]triazolo[4,5-d]pyrimidin-7-amine] displayed an IC50 of 220 nM. Against the preceding compound, the IC50 is about 4-fold lower.

Regarding `CC1CCN(c2nnc3c(N)nccn23)CC1C` (single isomer, unassigned) [Example 229, 3-(3,4-dimethylpiperidin-1-yl) [1,2,4]triazolo[4,3-a]pyrazin-8-amine], the IC50 worked out at 310 nM. This IC50 and that of the compound before are within 1.5-fold of each other.

In turn, `CC1CCCC(c2nnc3c(N)ncnn23)C1` (single isomer, unassigned) [Example 241, 3-(cis-3-methylcyclohexyl) [1,2,4]triazolo[3,4-f][1,2,4]triazin-8-amine] returned an IC50 of 230 nM.

`Nc1nccn2c(N3CCCC(F)C3)nnc12` (stereo not drawn) [Example 27] returned an IC50 of 320 nM. The IC50 values of the last two compounds are within 1.5-fold of each other.

`Nc1nccn2c(N3CCCC4(CCCC4)C3)nnc12` [Example 45] showed an IC50 of 210 nM.

As for `Nc1ncnc2c1nnn2C1CCC1` [Example 35], the IC50 is 200 nM.

Compound `Cc1cnc(C2CCCC(n3nnc4c(N)ncnc43)C2)s1` (stereo not drawn) [Example 127] had an IC50 of 730 nM.

Take `CC1CCCCC1c1nnc2c(N)ncnn12` (single isomer, unassigned) [Example 69, 3-(cis-2-methylcyclohexyl) [1,2,4]triazolo[3,4-f][1,2,4]triazin-8-amine]: inhibition was half-maximal at 10 nM (IC50).

As to `CC1CCN(c2nnc3c(N)nccn23)CC1C` (single isomer, unassigned) [Example 228, 3-(3,4-dimethylpiperidin-1-yl) [1,2,4]triazolo[4,3-a]pyrazin-8-amine], the half-maximal inhibitory concentration (IC50) was found to be 540 nM. This IC50 lies about 54-fold higher than the previous one.

In turn, `Nc1nccn2c(N3CCCCC3c3ccccc3)nnc12` (stereo not drawn) [Example 41] had an IC50 of 290 nM.

`Nc1ncnc2c1nnn2C1CCCCC1(F)F` (single isomer, unassigned) [Example 114, 3-(2,2-difluorocyclohexyl)-3H-[1,2,3]triazolo[4,5-d]pyrimidin-7-amine] came in with an IC50 of 190 nM.

Compound `Nc1nccn2c(C3CCCC(C(F)(F)F)C3)nnc12` (stereo not drawn) [Example 147] returned an IC50 of 700 nM. This IC50 lies about 3.7-fold higher than the previous one.

`CC1(C)CCCN(c2nnc3c(N)ncc(-c4ccccc4)n23)C1` [Example 81]: the IC50 worked out at 160 nM.

`Nc1ncnc2c1nnn2[C@H]1CCCOC1` [Example 91] came in with an IC50 of 360 nM.

Staying with this test, now noted: compound at 1 μmol/L.
As for `Nc1ncnc2c1nnn2C1CCCC(C(F)F)C1` (single isomer, unassigned) [Example 201], the inhibition at 1 µM was 20%.
